Data: paper PMC7727793, “Aggregation Behavior, Antibacterial Activity and Biocompatibility of Catanionic Assemblies Based on Amino Acid-Derived Surfactants” (International Journal of Molecular Sciences, 2020)

What was measured:
[1] = Surface tension, hanging drop tensiometer; type: physicochemical; conditions: 25 °C; for Surface tension (γ) at CMC: estimated error 1 mNm^−1; for CMC obtained by surface tension (CMCγ): estimated error 10%; for Area per molecule (Am): Gibbs adsorption isotherm using n = 1, estimated error 15%
Method: Surface tension was measured at 25 °C using a homemade hanging drop tensiometer. Samples were hanged from a straight-cut Teflon tube and the size and shape were obtained from pictures as a function of time. Surface tension was obtained from fitting the drop profile to the appropriate Young-Laplace equations. See Sorrenti et al. for more details. From a concentrated clear solution, successive dilutions were made to cover the adequate range of surface tension changes. The surface tension of […]14 was measured in three pH conditions: (a) unbuffered, using water as solvent, (b) buffered at pH = 2, using 10 mM HCl solution to prepare the concentrated sample and their dilutions and (c) buffered at pH = 12, using 10 mM […] to prepare the concentrated solution and their dilutions.

HaCaT cell line [2] = assay: NRU cell viability assay; type: cell-based, human; conditions: 24 h
Method: (§1) The murine Swiss albino fibroblast (3T3), the squamous carcinoma (A431), the immortal human keratinocyte (HaCaT) and the human epithelial carcinoma (HeLa) cell lines were obtained from Celltec UB. Cells were grown in Dulbecco’s Modified Eagle’s Medium (DMEM) (4.5 g/L glucose) supplemented with 10% (v/v) fetal bovine serum (FBS), 1% (v/v) L-glutamine solution (200 mM) and 1% (v/v) penicillin-streptomycin solution (10,000 U/mL penicillin and 10 mg/mL streptomycin) at 37 °C and 5% CO2 (CO2 Incubator Nuaire, Plymouth, MN, USA). All the biological materials were purchased from Lonza (Verviers, Belgium). Cells were cultured in 75 cm^2 culture flasks (TPP, Trasadingen, Switzerland) and were routinely split using trypsin-EDTA (ethylenediaminetetraacetate) solution (170,000 U/L trypsin and 0.2 g/L EDTA) (Lonza, Verviers, Belgium) when cells are approximately 80% confluent. 3T3 and HaCaT cells (1 × 10^5 cells/ mL) and HeLa and A431 cells (5 × 10^4 cells/mL) were grown at the defined densities into the central 60 wells of a 96-well plate. Cells were incubated for 24 h under 5% CO2 at 37 °C. […] Agitation, determination of the absorbance of the extracted solution and effect of each treatment in comparison with control cells were analogous of those described in the case of the MTT method.

3T3 cell line [3] = assay: MTT cell viability assay; type: cell-based, murine; conditions: 3T3, MTT, 24 h
Method: (§2) The murine Swiss albino fibroblast (3T3), the squamous carcinoma (A431), the immortal human keratinocyte (HaCaT) and the human epithelial carcinoma (HeLa) cell lines were obtained from Celltec UB. Cells were grown in Dulbecco’s Modified Eagle’s Medium (DMEM) (4.5 g/L glucose) supplemented with 10% (v/v) fetal bovine serum (FBS), 1% (v/v) L-glutamine solution (200 mM) and 1% (v/v) penicillin-streptomycin solution (10,000 U/mL penicillin and 10 mg/mL streptomycin) at 37 °C and 5% CO2 (CO2 Incubator Nuaire, Plymouth, MN, USA). All the biological materials were purchased from Lonza (Verviers, Belgium). Cells were cultured in 75 cm^2 culture flasks (TPP, Trasadingen, Switzerland) and were routinely split using trypsin-EDTA (ethylenediaminetetraacetate) solution (170,000 U/L trypsin and 0.2 g/L EDTA) (Lonza, Verviers, Belgium) when cells are approximately 80% confluent. […]
(§3) In this assay, living cells reduce the yellow tetrazolium salt, 2,5-Diphenyl-3, -(4,5-dimethyl-2-thiazolyl) tetrazolium bromide (MTT), to insoluble purple formazan crystals. […] Then, the absorbance of the resulting solutions was measured at 550 nm using a Bio-Rad 550 microplate reader (Hercules, California, USA). The effect of each treatment was calculated as the percentage of tetrazolium salt reduction by viable cells against the untreated cell control (cells with medium only).

HaCaT cell line [4] = assay: MTT cell viability assay; type: cell-based, human; conditions: 24 h
Method: (§4) The murine Swiss albino fibroblast (3T3), the squamous carcinoma (A431), the immortal human keratinocyte (HaCaT) and the human epithelial carcinoma (HeLa) cell lines were obtained from Celltec UB. Cells were grown in Dulbecco’s Modified Eagle’s Medium (DMEM) (4.5 g/L glucose) supplemented with 10% (v/v) fetal bovine serum (FBS), 1% (v/v) L-glutamine solution (200 mM) and 1% (v/v) penicillin-streptomycin solution (10,000 U/mL penicillin and 10 mg/mL streptomycin) at 37 °C and 5% CO2 (CO2 Incubator Nuaire, Plymouth, MN, USA). All the biological materials were purchased from Lonza (Verviers, Belgium). Cells were cultured in 75 cm^2 culture flasks (TPP, Trasadingen, Switzerland) and were routinely split using trypsin-EDTA (ethylenediaminetetraacetate) solution (170,000 U/L trypsin and 0.2 g/L EDTA) (Lonza, Verviers, Belgium) when cells are approximately 80% confluent.
(§5) 3T3 and HaCaT cells (1 × 10^5 cells/ mL) and HeLa and A431 cells (5 × 10^4 cells/mL) were grown at the defined densities into the central 60 wells of a 96-well plate. Cells were incubated for 24 h under 5% CO2 at 37 °C. Then, the spent medium was removed, and cells were incubated during 24 h with the corresponding surfactant systems, previously diluted 50% (v/v) in DMEM medium supplemented with 5% FBS (100 µL).
(§6) In this assay, living cells reduce the yellow tetrazolium salt, 2,5-Diphenyl-3, -(4,5-dimethyl-2-thiazolyl) tetrazolium bromide (MTT), to insoluble purple formazan crystals. After the cells were incubated for 24 h with the corresponding systems, the medium was removed and 100 µL (5 mg/mL) of 2,5-Diphenyl-3,-(4,5-dimethyl-2-thiazolyl) tetrazolium bromide (MTT) (Sigma–Aldrich, St. Louis, MO, USA) in phosphate-buffered saline (PBS) (Lonza, Verviers, Belgium), diluted 1:10 in culture medium without phenol red and absence of FBS (Lonza, Verviers, Belgium), was added to the cells. The plates were incubated for 3 h, after which the medium was removed. Thereafter, 100 µL of dimethylsulfoxide (DMSO) (Sigma–Aldrich, St. Louis, MO, USA) was added to each well to dissolve the purple formazan crystals. Plates were then placed in a microtiter-plate shaker for 5 min at room temperature to help the total dissolution. Then, the absorbance of the resulting solutions was measured at 550 nm using a Bio-Rad 550 microplate reader (Hercules, California, USA). The effect of each treatment was calculated as the percentage of tetrazolium salt reduction by viable cells against the untreated cell control (cells with medium only).

HeLa cell line = assay: MTT cell viability assay; type: cell-based, human; conditions: 24 h
Method: as §4, §5, §6

[5] = Pyrene fluorescence (II/IIII ratio) CMC determination; type: physicochemical; conditions: pyrene probe, 25 °C; estimated error 10%
Method: Fluorescence measurements were carried out using a Shimadzu RF 540 spectrofluorometer (Shimadzu, Kyoto, Japan). Pyrene (Sigma-Aldrich, San Luis, MO, USA) was utilized as a fluorescence probe at 25 °C. From a 5 mM solution of catanionic formulations prepared in a pyrene aqueous solution (10^−6 M), different dilutions were prepared. The fluorescence emission spectra of these binary mixtures were acquired from 340 to 450 nm after excitation at 332 nm. The ratio of the first to the third vibronic peaks (II/IIII) in the emission spectra of pyrene is sensitive to the polarity of the microenvironment and the CMC can be calculated from plots of II/IIII as a function of surfactant concentration.

A431 cell line = assay: MTT cell viability assay; type: cell-based
Method: as §2, §3

3T3 cell line [6] = assay: NRU cell viability assay; type: cell-based, murine; conditions: 3T3, NRU, 24 h
Method: as §1

For `CCCCCCCCCCCCCC(=O)O` [Sodium myristate, sodium myristate], the “Surface tension (γ) at CMC” value [1] was 24 mNm^−1, the “CMC obtained by surface tension (CMCγ)” value [1] was 5.0 ^7 mM and the “Area per molecule (Am)” value [1] was 1.0 nm^2. It also gave an IC50 (HaCaT cell line [2]; Homo sapiens) greater than 50 µM, an IC50 (3T3 cell line [3]; Mus musculus, NIH3T3) greater than 50 µM and an IC50 (HaCaT cell line [4]; Homo sapiens) greater than 50 µM. The IC50 (HeLa cell line; Homo sapiens) was greater than 50 µM, the “CMC obtained by Fluorescence (CMCF)” value [5] was 0.90 mM and the IC50 (A431 cell line; Homo sapiens, A-431, 24 h) was greater than 50 µM. The IC50 (3T3 cell line [6]; Mus musculus, NIH3T3) was greater than 50 µM.

In the case of “N(π),N(τ)-bis(methyl)-L-Histidine tetradecyl amide [DMHNHC14]”, the “Surface tension (γ) at CMC” value [1] is reported as 33 mNm^−1, the “CMC obtained by surface tension (CMCγ)” value [1] is reported as 5.2 mM and the “Area per molecule (Am)” value [1] is reported as 0.57 nm^2. The IC50 (HaCaT cell line [2]) was 45.7 µM, the IC50 (3T3 cell line [3]) was 17.1 µM and the IC50 (HaCaT cell line [4]) was 25.5 µM. The IC50 (HeLa cell line) was 3.37 µM, the “CMC obtained by Fluorescence (CMCF)” value [5] was 3.8 mM and the IC50 (A431 cell line; 24 h) was 22.6 µM. For the same compound, the IC50 (3T3 cell line [6]) was 26.1 µM.
